Measured values from patent publication US10189840B2, “Substituted tricyclic heterocyclic compounds” (BRISTOL-MYERS SQUIBB COMPANY, priority 2015, dated 2019).

Molecular target: TNFα (Homo sapiens (Human), UniProt P01375)
Test: TNF induced HEK-Blue assay
Type: cell-based
Settings: TNFα 0.5 ng/ml; HEK-Blue-CD40L cells, NF-κB-driven secreted alkaline phosphatase reporter; 18 h
In short: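 Compounds at 0.004–25 μM final were preincubated 30 min with TNFα (0.5 ng/ml final) in DMEM/10% FBS. HEK-Blue-CD40L cells carrying an NF-κB-driven SEAP reporter (20,000/well) were then added for 18 h at 37 °C, 5% CO2, and SEAP was read by QUANTI-Blue at 620 nm. IC50 came from a 4-parameter logistic fit, normalized to unstimulated and stimulated DMSO controls.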

Chain of TNFα (P01375 77-233): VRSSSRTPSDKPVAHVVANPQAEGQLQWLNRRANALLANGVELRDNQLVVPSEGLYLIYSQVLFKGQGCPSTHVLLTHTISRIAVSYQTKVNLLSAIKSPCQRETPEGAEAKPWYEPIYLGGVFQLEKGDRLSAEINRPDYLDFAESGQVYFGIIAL

Row | Compound | IC50 [nM]
1 | CC(C)(O)c1ccc(-c2ccc3nc4n(c3n2)C(c2ccccc2C(F)(F)F)CC4)cc1 (single isomer, unassigned) [Example 25 (e2), 2-(4-(8-(2-(Trifluoromethyl)phenyl)-7,8-dihydro-6H-pyrrolo[2′,1′:2,3]imidazo[4,5-b]pyridin-2-yl)phenyl)propan-2-ol] | < 1000
2 | CC(C)(O)c1ccc(-c2ccc3nc4n(c3n2)C(c2ccccc2OC(F)F)CC4)cc1 (single isomer, unassigned) [Example 26 (e1), 2-(4-(8-(2-(difluoromethoxy)phenyl)-7,8-dihydro-6H-pyrrolo[2′,1′:2,3]imidazo[4,5-b]pyridin-2-yl)phenyl)propan-2-ol] | < 1000
3 | CC(C)(O)c1ccc(-c2ccc3nc4n(c3n2)C(c2c(F)cccc2C(F)(F)F)CC4)cc1 (single isomer, unassigned) [Example 32 (e1), 2-(4-(8-(2-fluoro-6-(trifluoromethyl)phenyl)-7,8-dihydro-6H-pyrrolo[2′,1′:2,3]imidazo[4,5-b]pyridin-2-yl)phenyl)propan-2-ol] | < 1000
4 | CC(C)(O)c1ccc(-c2ccc3nc4n(c3n2)C(c2ccccc2C2CC2)CC4)cc1 (single isomer, unassigned) [Example 33 (e1), 2-(4-(8-(2-cyclopropylphenyl)-7,8-dihydro-6H-pyrrolo[2′,1′:2,3]imidazo[4,5-b]pyridin-2-yl)phenyl)propan-2-ol] | < 1000
5 | CC(C)(O)c1ccc(-c2ccc3nc4n(c3n2)C(c2ccccc2C2CC2)CC4)cc1 (single isomer, unassigned) [Example 33 (e2), 2-(4-(8-(2-cyclopropylphenyl)-7,8-dihydro-6H-pyrrolo[2′,1′:2,3]imidazo[4,5-b]pyridin-2-yl)phenyl)propan-2-ol] | 1000 to 10000
6 | CC(C)(O)c1ccc(-c2ccc3nc4n(c3n2)C(c2cc(F)ccc2C(F)(F)F)CC4)cc1 (single isomer, unassigned) [Example 34 (e1), 2-(4-(8-(5-fluoro-2-(trifluoromethyl)phenyl)-7,8-dihydro-6H-pyrrolo[2′,1′:2,3]imidazo[4,5-b]pyridin-2-yl)phenyl)propan-2-ol] | < 1000
7 | CC(C)(O)c1ccc(-c2ccc3nc4n(c3n2)C(c2cc(F)ccc2C(F)(F)F)CC4)cc1 (single isomer, unassigned) [Example 34 (e2), 2-(4-(8-(5-fluoro-2-(trifluoromethyl)phenyl)-7,8-dihydro-6H-pyrrolo[2′,1′:2,3]imidazo[4,5-b]pyridin-2-yl)phenyl)propan-2-ol] | 1000 to 10000
8 | Cc1ccc(C)c(C2CC(O)c3nc4ccc(-c5cnc(C(C)(C)O)nc5)nc4n32)c1 (centres unmarked) [Example 5 (DM), 8-(2,5-dimethylphenyl)-2-(2-(2-hydroxypropan-2-yl)pyrimidin-5-yl)-7,8-dihydro-6H-pyrrolo[2′,1′:2,3]imidazo[4,5-b]pyridin-6-ol] | < 1000
9 | Cc1ccc(C)c(C2CC(O)c3nc4ccc(-c5cnc(N6CCOCC6)nc5)nc4n32)c1 (centres unmarked) [Example 6 (DM), 8-(2,5-dimethylphenyl)-2-(2-morpholinopyrimidin-5-yl)-7,8-dihydro-6H-pyrrolo[2′,1′:2,3]imidazo[4,5-b]pyridin-6-ol] | < 1000
10 | CC(C)(O)c1ncc(-c2ccc3nc4n(c3n2)C(c2ccccc2OC(F)F)CC4O)cn1 (centres unmarked) [Example 11 (e1), 8-(2-(difluoromethoxy)phenyl)-2-(2-(2-hydroxypropan-2-yl)pyrimidin-5-yl)-7,8-dihydro-6H-pyrrolo[2′,1′:2,3]imidazo[4,5-b]pyridin-6-ol] | < 1000
11 | CC(C)(O)c1ncc(-c2ccc3nc4n(c3n2)C(c2ccccc2OC(F)F)CC4O)cn1 (centres unmarked) [Example 11 (e4), 8-(2-(difluoromethoxy)phenyl)-2-(2-(2-hydroxypropan-2-yl)pyrimidin-5-yl)-7,8-dihydro-6H-pyrrolo[2′,1′:2,3]imidazo[4,5-b]pyridin-6-ol] | 1000 to 10000
12 | CC(C)(O)c1ccc(-c2ccc3nc4n(c3n2)C(c2ccccc2OC(F)F)CC4F)cc1 (centres unmarked) [Example 15 (DM), 2-(4-(8-(2-(difluoromethoxy)phenyl)-6-fluoro-7,8-dihydro-6H-pyrrolo[2′,1′:2,3]imidazo[4,5-b]pyridin-2-yl)phenyl)propan-2-ol] | < 1000
13 | CC(C)(O)c1ccc(-c2ccc3nc4n(c3n2)C(c2ccccc2OC(F)F)CC4F)cc1 (centres unmarked) [Example 15 (e1), 2-(4-(8-(2-(difluoromethoxy)phenyl)-6-fluoro-7,8-dihydro-6H-pyrrolo[2′,1′:2,3]imidazo[4,5-b]pyridin-2-yl)phenyl)propan-2-ol] | < 1000
14 | CC(C)(O)c1ncc(-c2ccc3nc4n(c3n2)C(c2ccccc2OC(F)F)CC4F)cn1 (centres unmarked) [Example 16 (DM), 2-(5-(8-(2-(difluoromethoxy)phenyl)-6-fluoro-7,8-dihydro-6H-pyrrolo[2′,1′:2,3]imidazo[4,5-b]pyridin-2-yl)pyrimidin-2-yl)propan-2-ol] | < 1000
15 | FC(F)Oc1ccccc1C1CC(F)c2nc3ccc(-c4cnc(N5CCOCC5)nc4)nc3n21 (centres unmarked) [Example 17 (DM), 4-(5-(8-(2-(difluoromethoxy)phenyl)-6-fluoro-7,8-dihydro-6H-pyrrolo[2′,1′:2,3]imidazo[4,5-b]pyridin-2-yl)pyrimidin-2-yl)morpholine] | < 1000
16 | COc1ccc(-c2ccc3nc4n(c3n2)C(c2ccccc2OC(F)F)CC4F)cn1 (centres unmarked) [Example 18 (DM), 8-(2-(difluoromethoxy)phenyl)-6-fluoro-2-(6-methoxypyridin-3-yl)-7,8-dihydro-6H-pyrrolo[2′,1′:2,3]imidazo[4,5-b]pyridine] | 1000 to 10000
17 | Cn1cc(-c2ccc3nc4n(c3n2)C(c2ccccc2OC(F)F)CC4F)cn1 (centres unmarked) [Example 19 (e3), 8-(2-(difluoromethoxy)phenyl)-6-fluoro-2-(1-methyl-1H-pyrazol-4-yl)-7,8-dihydro-6H-pyrrolo[2′,1′:2,3]imidazo[4,5-b]pyridine] | 1000 to 10000

Next, values leading:

Row | IC50 [nM] | Compound
18 | 10000 to 25000 | CC(C)(O)c1ccc(-c2ccc3nc4n(c3n2)C(c2ccccc2OC(F)F)CC4)cc1 (single isomer, unassigned) [Example 26 (e2), 2-(4-(8-(2-(difluoromethoxy)phenyl)-7,8-dihydro-6H-pyrrolo[2′,1′:2,3]imidazo[4,5-b]pyridin-2-yl)phenyl)propan-2-ol]
19 | 1000 to 10000 | CC(C)(O)c1ccc(-c2ccc3nc4n(c3n2)C(c2c(F)cccc2C(F)(F)F)CC4O)cc1 (centres unmarked) [Example 3 (e4), 8-(2-fluoro-6-(trifluoromethyl)phenyl)-2-(4-(2-hydroxypropan-2-yl)phenyl)-7,8-dihydro-6H-pyrrolo[2′,1′:2,3]imidazo[4,5-b]pyridin-6-ol]
20 | < 1000 | Cc1ccc(C)c(C2CC(O)c3nc4ccc(-c5ccc(C(C)(C)O)cc5)nc4n32)c1 (centres unmarked) [Example 4 (DM), 8-(2,5-dimethylphenyl)-2-(4-(2-hydroxypropan-2-yl)phenyl)-7,8-dihydro-6H-pyrrolo[2′,1′:2,3]imidazo[4,5-b]pyridin-6-ol]
21 | 1000 to 10000 | Cc1ccc(C(F)(F)F)cc1C1CC(O)c2nc3ccc(-c4ccc(C(C)(C)O)cc4)nc3n21 (centres unmarked) [Example 7 (DM), 2-(4-(2-hydroxypropan-2-yl)phenyl)-8-(2-methyl-5-(trifluoromethyl)phenyl)-7,8-dihydro-6H-pyrrolo[2′,1′:2,3]imidazo[4,5-b]pyridin-6-ol]
22 | 1000 to 10000 | CC(C)(O)c1ccc(-c2ccc3nc4n(c3n2)C(c2cc(C(F)(F)F)ccc2C(F)(F)F)CC4O)cc1 (centres unmarked) [Example 8 (DM), 8-(2,5-bis(trifluoromethyl)phenyl)-2-(4-(2-hydroxypropan-2-yl)phenyl)-7,8-dihydro-6H-pyrrolo[2′,1′:2,3]imidazo[4,5-b]pyridin-6-ol]
23 | < 1000 | CC(C)(O)c1ccc(-c2ccc3nc4n(c3n2)C(c2ccccc2C2CC2)CC4O)cc1 (centres unmarked) [Example 9 (e1), 8-(2-cyclopropylphenyl)-2-(4-(2-hydroxypropan-2-yl)phenyl)-7,8-dihydro-6H-pyrrolo[2′,1′:2,3]imidazo[4,5-b]pyridin-6-ol]
24 | < 1000 | OC1CC(c2ccccc2OC(F)F)n2c1nc1ccc(-c3cnc(N4CCOCC4)nc3)nc12 (centres unmarked) [Example 10 (DM), 8-(2-(difluoromethoxy)phenyl)-2-(2-morpholinopyrimidin-5-yl)-7,8-dihydro-6H-pyrrolo[2′,1′:2,3]imidazo[4,5-b]pyridin-6-ol]
25 | 10000 to 25000 | CC(C)(O)c1ccc(-c2ccc3nc4n(c3n2)C(c2ccccc2OC(F)F)CC4F)cc1 (centres unmarked) [Example 15 (e4), 2-(4-(8-(2-(difluoromethoxy)phenyl)-6-fluoro-7,8-dihydro-6H-pyrrolo[2′,1′:2,3]imidazo[4,5-b]pyridin-2-yl)phenyl)propan-2-ol]
26 | < 1000 | CC(C)(O)c1ncc(-c2ccc3nc4n(c3n2)C(c2ccccc2OC(F)F)CC4F)cn1 (centres unmarked) [Example 16 (e2), 2-(5-(8-(2-(difluoromethoxy)phenyl)-6-fluoro-7,8-dihydro-6H-pyrrolo[2′,1′:2,3]imidazo[4,5-b]pyridin-2-yl)pyrimidin-2-yl)propan-2-ol]
27 | 10000 to 25000 | CC(C)(O)c1ncc(-c2ccc3nc4n(c3n2)C(c2ccccc2OC(F)F)CC4F)cn1 (centres unmarked) [Example 16 (e3), 2-(5-(8-(2-(difluoromethoxy)phenyl)-6-fluoro-7,8-dihydro-6H-pyrrolo[2′,1′:2,3]imidazo[4,5-b]pyridin-2-yl)pyrimidin-2-yl)propan-2-ol]
28 | < 1000 | CC(C)(O)c1ncc(-c2ccc3nc4n(c3n2)C(c2ccccc2OC(F)F)CC4F)cn1 (centres unmarked) [Example 16 (e4), 2-(5-(8-(2-(difluoromethoxy)phenyl)-6-fluoro-7,8-dihydro-6H-pyrrolo[2′,1′:2,3]imidazo[4,5-b]pyridin-2-yl)pyrimidin-2-yl)propan-2-ol]
29 | < 1000 | Cc1ccc(C)c(C2CC(F)c3nc4ccc(-c5cnc(C(C)(C)O)nc5)nc4n32)c1 (centres unmarked) [Example 20 (DM), 2-(5-(8-(2,5-dimethylphenyl)-6-fluoro-7,8-dihydro-6H-pyrrolo[2′,1′:2,3]imidazo[4,5-b]pyridin-2-yl)pyrimidin-2-yl)propan-2-ol]
